Patent US20250346585A1 (Alexion Pharmaceuticals, Inc., priority 2022, published 2025)
pIC50: −log10 of the molar value.

target: Human complement C1s enzyme (Homo sapiens (Human), UniProt P09871); assay: Human C1s enzyme assay; type: biochemical; details: Human complement C1s enzyme 1.16 nM, substrate Z-L-Lys-SBzl 100 μM, assay of Example 3; read-out: IC50 (Stars)
Summary of the method: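 IC50 derived by nonlinear regression of rate versus concentration, with rate taken from A405 kinetics (30 s intervals, 30 min) after adding 100 μM each Z-L-Lys-SBzl and DTNB. C1s from human serum, 1.16 nM, exposed to compound for 5 min at RT beforehand; buffer 50 mM Tris, 1 M NaCl, pH 7.5.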

Chain of Human complement C1s enzyme (P09871 438-688 limits assumed): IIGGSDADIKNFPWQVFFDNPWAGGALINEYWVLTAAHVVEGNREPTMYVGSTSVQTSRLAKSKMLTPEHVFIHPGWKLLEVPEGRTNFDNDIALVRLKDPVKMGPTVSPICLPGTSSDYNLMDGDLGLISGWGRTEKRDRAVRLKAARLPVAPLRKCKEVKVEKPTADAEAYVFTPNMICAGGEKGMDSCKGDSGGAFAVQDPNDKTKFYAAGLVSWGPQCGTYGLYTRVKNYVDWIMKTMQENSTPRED
Chain of Human complement C1s enzyme (P09871 16-437 partner limits assumed): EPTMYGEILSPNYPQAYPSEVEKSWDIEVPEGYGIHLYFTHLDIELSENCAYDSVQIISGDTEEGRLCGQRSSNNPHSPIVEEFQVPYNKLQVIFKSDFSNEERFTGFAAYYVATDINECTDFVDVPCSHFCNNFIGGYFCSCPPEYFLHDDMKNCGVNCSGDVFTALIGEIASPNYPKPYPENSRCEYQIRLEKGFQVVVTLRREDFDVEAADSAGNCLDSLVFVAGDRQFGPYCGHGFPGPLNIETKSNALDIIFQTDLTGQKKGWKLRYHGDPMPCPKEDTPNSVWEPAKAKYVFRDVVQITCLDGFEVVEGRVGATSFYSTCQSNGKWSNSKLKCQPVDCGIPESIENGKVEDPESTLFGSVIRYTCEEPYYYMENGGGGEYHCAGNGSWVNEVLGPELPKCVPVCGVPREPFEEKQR

pIC50, > 7.00:
COC[C@@]1(F)C[C@@H](C(=O)N[C@H](C)c2cc(C(=N)N)cs2)N(C(=O)CNC(=O)c2ccc3sc4ccccc4c3c2)C1 [Compound 394, (2S,4R)—N—((R)-1-(4-carbamimidoylthiophen-2-yl)ethyl)-1-((dibenzo[b,d]thiophene-2-carbonyl)glycyl)-4-fluoro-4-(methoxymethyl)pyrrolidine-2-carboxamide]
CO[C@@H]1C[C@@H](C(=O)N[C@H](CO)c2cc(C(=N)N)cs2)N(C(=O)CNC(=O)c2ccc3c(c2)-c2ccccc2C3(C)C)C1 [Compound 395, (2S,4R)—N—((R)-1-(4-carbamimidoylthiophen-2-yl)-2-hydroxyethyl)-1-((9,9-dimethyl-9H-fluorene-3-carbonyl)glycyl)-4-methoxypyrrolidine-2-carboxamide]
N=C(N)c1csc([C@@H](CO)NC(=O)[C@@H]2C[C@@H](OC(F)F)CN2C(=O)CNC(=O)c2ccc3c(c2)C(F)(F)c2ccccc2-3)c1 [Compound 396, (2S,4R)—N—((R)-1-(4-carbamimidoylthiophen-2-yl)-2-hydroxyethyl)-1-((9,9-difluoro-9H-fluorene-2-carbonyl)glycyl)-4-(difluoromethoxy) pyrrolidine-2-carboxamide]
COC[C@@]1(F)C[C@@H](C(=O)N[C@H](CO)c2cc(C(=N)N)cs2)N(C(=O)CNC(=O)c2ccc3c(c2)C(F)(F)c2ccccc2-3)C1 [Compound 397, (2S,4R)—N—((R)-1-(4-carbamimidoylthiophen-2-yl)-2-hydroxyethyl)-1-((9,9-difluoro-9H-fluorene-2-carbonyl)glycyl)-4-fluoro-4-(methoxymethyl)pyrrolidine-2-carboxamide]

same assay, conditions: Human complement C1s enzyme 1.16 nM, substrate Z-L-Lys-SBzl; assay of Example 3; read-out: IC50 (Stars)

pIC50, > 7.00:
N=C(N)c1csc([C@@H](CO)NC(=O)[C@@H]2C[C@](F)(CF)CN2C(=O)CNC(=O)c2ccc3c(c2)-c2ccccc2C3(F)F)c1 [Compound 398, (2S,4R)—N—((R)-1-(4-carbamimidoylthiophen-2-yl)-2-hydroxyethyl)-1-((9,9-difluoro-9H-fluorene-3-carbonyl)glycyl)-4-fluoro-4-(fluoromethyl)pyrrolidine-2-carboxamide]
CC1(C)c2ccccc2-c2cc(C(=O)NCC(=O)N3CC4(C[C@H]3C(=O)N[C@H](CO)c3cc(C(=N)N)cs3)OCCO4)ccc21 [Compound 399, (S)—N—((R)-1-(4-carbamimidoylthiophen-2-yl)-2-hydroxyethyl)-7-((9,9-dimethyl-9H-fluorene-3-carbonyl)glycyl)-1,4-dioxa-7-azaspiro[4.4]nonane-8-carboxamide]
CS(=O)(=O)[C@@H]1C[C@@H](C(=O)N[C@H](CO)c2cc(C(=N)N)cs2)N(C(=O)CNC(=O)c2ccc3c(c2)-c2ccccc2C3(F)F)C1 [Compound 400, (2S,4R)—N—((R)-1-(4-carbamimidoylthiophen-2-yl)-2-hydroxyethyl)-1-((9,9-difluoro-9H-fluorene-3-carbonyl)glycyl)-4-(methylsulfonyl)pyrrolidine-2-carboxamide]
CC1(C)c2ccccc2-c2cc(C(=O)NCC(=O)N3C[C@@](F)(CF)C[C@H]3C(=O)N[C@H](CO)c3cc(C(=N)N)cs3)ccc21 [Compound 401, (2S,4R)—N—((R)-1-(4-carbamimidoylthiophen-2-yl)-2-hydroxyethyl)-1-((9,9-dimethyl-9H-fluorene-3-carbonyl)glycyl)-4-fluoro-4-(fluoromethyl)pyrrolidine-2-carboxamide]
CS(=O)(=O)[C@@H]1C[C@@H](C(=O)N[C@H](CO)c2cc(C(=N)N)cs2)N(C(=O)CNC(=O)c2cccc(-c3ccc(F)cc3)c2)C1 [Compound 402, (2S,4R)—N—((R)-1-(4-carbamimidoylthiophen-2-yl)-2-hydroxyethyl)-1-((4′-fluoro-[1,1′-biphenyl]-3-carbonyl)glycyl)-4-(methylsulfonyl)pyrrolidine-2-carboxamide]
